The source of these data is PMC5050400 (Current Neuropharmacology, 2016).

As usually defined, the EC50 is the concentration giving half of the maximal effect. A higher EC50 goes with a less potent agent. One may read the Kd as the free concentration of one partner at which half of the binding sites on the other are occupied at equilibrium, for simple one-to-one binding.

Assay [1] addresses T1, α1β3(M286W+Y143W) GABAA receptor (Homo sapiens, UniProt P14867+P28472, M311W/Y168W).
T1 sequence (P28472 26-473 Y168W/M311W): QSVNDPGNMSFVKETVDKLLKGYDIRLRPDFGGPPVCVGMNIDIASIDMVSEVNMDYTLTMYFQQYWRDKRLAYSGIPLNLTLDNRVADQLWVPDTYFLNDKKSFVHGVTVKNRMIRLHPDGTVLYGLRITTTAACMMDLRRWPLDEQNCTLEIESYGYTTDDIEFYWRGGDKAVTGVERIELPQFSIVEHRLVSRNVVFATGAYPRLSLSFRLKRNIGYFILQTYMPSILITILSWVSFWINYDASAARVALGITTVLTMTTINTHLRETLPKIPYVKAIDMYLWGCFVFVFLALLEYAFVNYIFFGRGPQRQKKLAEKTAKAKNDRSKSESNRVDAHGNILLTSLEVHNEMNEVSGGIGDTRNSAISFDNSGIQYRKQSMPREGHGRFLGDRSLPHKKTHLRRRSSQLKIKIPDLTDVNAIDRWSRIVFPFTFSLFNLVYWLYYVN
T1 sequence (P14867 28-456): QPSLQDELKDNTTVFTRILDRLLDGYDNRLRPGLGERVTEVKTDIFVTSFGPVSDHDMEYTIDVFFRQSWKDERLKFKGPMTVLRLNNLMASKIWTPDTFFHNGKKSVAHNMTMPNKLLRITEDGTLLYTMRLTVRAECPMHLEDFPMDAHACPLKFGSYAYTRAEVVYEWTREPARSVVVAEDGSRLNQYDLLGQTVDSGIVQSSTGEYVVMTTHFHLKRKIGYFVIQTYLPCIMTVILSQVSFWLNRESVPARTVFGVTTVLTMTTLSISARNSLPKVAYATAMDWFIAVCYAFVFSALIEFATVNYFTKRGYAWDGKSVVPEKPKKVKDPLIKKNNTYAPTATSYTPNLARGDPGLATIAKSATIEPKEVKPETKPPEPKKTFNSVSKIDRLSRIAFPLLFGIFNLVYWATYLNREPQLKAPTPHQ
Briefly: Two-electrode voltage clamp activation of α1β3. It is filed as cell-based. The settings on record: for Po,max^est / nH / d: α1β3(M286W+Y143W); for d: KO/KC, MWC fit.

In assay [2] the target is T2, α1β3(M286W+Q224W) GABAA receptor (Homo sapiens, UniProt P14867+P28472, M311W/Q249W).
T2 sequence (P28472 26-473 Q249W/M311W): T1 sequence (P28472 26-473 Y168W/M311W) with W143Y, Q224W
T2 sequence (P14867 28-456): T1 sequence (P14867 28-456)
The assay can be described thus: cell-based.

Assay [3] has as its target T3, α1β3(M286W+F221W) GABAA receptor (Homo sapiens, UniProt P14867+P28472, F246W/M311W).
T3 sequence (P28472 26-473 F246W/M311W): T1 sequence (P28472 26-473 Y168W/M311W) with W143Y, F221W
T3 sequence (P14867 28-456): T1 sequence (P14867 28-456)
The assay can be described thus: Two-electrode voltage clamp activation of α1β3. It is filed as cell-based. Conditions: for Po,max^est / nH / d: α1β3(M286W+F221W); for d: KO/KC, MWC fit. Background: In two-electrode clamp one electrode senses voltage and the other passes current.

The target in assay [4] is T4, α1β3(Y143W) GABAA receptor (Homo sapiens, UniProt P14867+P28472, Y168W).
T4 sequence (P28472 26-473 Y168W): T1 sequence (P28472 26-473 Y168W/M311W) with W286M
T4 sequence (P14867 28-456): T1 sequence (P14867 28-456)
Briefly: Two-electrode voltage clamp activation of α1β3. It is filed as cell-based. Conditions: for Po,max^est / nH / d: α1β3(Y143W); for d: KO/KC, MWC fit.

Structures are written as SMILES. Substitutions are numbered along the chain they refer to. Where two headings read alike, the source gives them in different places.

Take `NCCCC(=O)O` [GABA, γ-aminobutyric acid]: the “Po,max^est” value in assay [1] was found to be 0.96±0.09; in assay [2] (α1β3(M286W+Q224W)) it was 0.87±0.02; in assay [3], 1; in assay [4] it was 1. For the same compound, the nH is listed as 0.8±0.1 in assay [1], 1.1±0.1 in assay [2] (α1β3(M286W+Q224W)), 1.1±0.1 in assay [3] and 1.7±0.1 in assay [4]. For the same compound, the d in assay [1] turned out to be 0.08±0.05; in assay [2] (α1β3(M286W+Q224W), KO/KC, MWC fit) it was 0.04±0.004; in assay [3] it was 0.07±0.05; in assay [4] it was 0.02±0.001.
`CC(C)c1cccc(C(C)C)c1O` [Propofol, 2,6-diisopropylphenol]: in assay [1], the EC50 was determined as 1.6 ± 0.2 µM, binding was put at a Kd of 1.4 ± 0.3 µM, the “Po,max^est” value stood at 0.64±0.02 and the nH worked out at 1.5±0.2. For the same compound, in assay [1], the d was found to be 0.93±0.01. Besides, in assay [2], the EC50 worked out at 69 ± 9 µM; the affinity, expressed as Kd, was 61 ± 14 µM; the “Po,max^est” value was 0.11±0.01; the d is on record as 0.58±0.01. The compound also registered a nH in assay [2] of 1.9±0.1. Moreover, in assay [3], the EC50 stood at 6.6 ± 0.8 µM, the Kd came to 5.7 ± 1.6 µM, the “Po,max^est” value is on record as 0.60±0.04 and the nH is given as 1.1±0.1. In addition, the d in assay [3] is given as 0.84±0.01. Further, in assay [4], the response was half-maximal at 12.8 ± 2.9 µM (EC50), the Kd was 23 ± 6 µM, the “Po,max^est” value turned out to be 1 and the nH is recorded as 1.6±0.1. Moreover, in assay [4], the d was determined as 0.27±0.03.
